According to ChEMBL document CHEMBL1129199, “Trifluoromethyl alcohol and ketone inhibitors of metallo--lactamases” (Bioorg Med Chem Lett, 1996):

How the values were obtained:
[1] = Compound was evaluated for inhibition of metallo beta lactamase from Aeromonas hydrophilia AE036.; parameters: species or system Aeromonas hydrophila
Aeromonas hydrophila = assay: Compound was evaluated for kinetic data for the inhibition of metallo beta lactamase from Aeromonas hydrophilia AE036.
[2] = Compound was evaluated for inhibition of metallo beta lactamase from bacillus cereus 569H
[3] = Compound was evaluated for inhibition of metallo beta lactamase from Pseudomonas aeruginosa 101
[4] = Compound was evaluated for inhibition of metallo beta lactamase from xanthomonas maltophilia ULA-511; parameters: species or system Stenotrophomonas maltophilia
[5] = Ratio of K+2/K of the compound

Ki [1] [µM]	k+2 (Aeromonas hydrophila) [s⁻¹]	Ki [2] [µM]	Ki [3] [µM]	Ki [4] [µM]	k+2/k [5] [M⁻¹ s⁻¹]	SMILES
19	4.3	1000	900	> 5000	2.3	O=C(COc1ccccc1)N[C@@H](Cc1ccccc1)[C@@H](O)C(F)(F)F
		3000	400	> 5000		C[C@H](NC(=O)COc1ccccc1)[C@@H](O)C(F)(F)F
217	1.1	700	400	35	5.25	C[C@@H](NC(=O)COc1ccccc1)[C@@H](O)C(F)(F)F
		1000				O=C(COc1ccccc1)N[C@H](Cc1ccccc1)C(=O)C(F)(F)F
6	4.3	500	530	15	7.2	O=C(COc1ccccc1)N[C@@H](Cc1ccccc1)C(=O)C(F)(F)F
20	3.9	30	60	> 5000	1.9	O=C(COc1ccccc1)N[C@H](Cc1ccccc1)[C@@H](O)C(F)(F)F

SMILES	Ki [1] [µM]	k+2 (Aeromonas hydrophila) [s⁻¹]	Ki [2] [µM]	Ki [3] [µM]	Ki [4] [µM]	k+2/k [5] [M⁻¹ s⁻¹]
C[C@@H](NC(=O)COc1ccccc1)C(=O)C(F)(F)F	11	1	700	500	3	9.1
C[C@H](NC(=O)COc1ccccc1)C(=O)C(F)(F)F	44	4	300	300	1.5	9.1
